# PubChem BioAssay (NCI)
#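 Cells were grown in 96-well plates and exposed to each compound for 48 hours at five concentrations; endpoints were interpolated linearly between bracketing concentrations, or set to the highest concentration if not reached. GI50 is the concentration that inhibits growth by half. TGI marks complete inhibition of growth.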
# Tests used:
# Assay in all cases: NCI tumour cell line growth inhibition, 48 h
# [1] = system: EKVX NSCLC
# [2] = system: UO-31 renal
# [3] = system: SK-MEL-28 melanoma
# [4] = system: ACHN renal
# [5] = system: UACC-62 melanoma
# [6] = system: OVCAR-5 ovarian
# [7] = system: SF-539 CNS
# [8] = system: BT-549 breast
# [9] = system: HL-60(TB) leukemia
# [10] = system: TK-10 renal
# [11] = system: KM12 colon
# [12] = system: U251 CNS
# [13] = system: HCT-15 colon
# [14] = system: NCI-H460 lung
# [15] = system: RXF 393 renal
# [16] = system: CAKI-1 renal
# [17] = system: SNB-19 CNS
# [18] = system: MDA-MB-435
# [19] = system: OVCAR-3 ovarian
# [20] = system: MOLT-4 leukemia
# [21] = system: K-562 leukemia
# [22] = system: HT29 colon
# [23] = system: NCI/ADR-RES ovarian
# [24] = system: SN12C renal
# [25] = system: NCI-H226 lung
# [26] = system: SNB-75 CNS
# [27] = system: HOP-92 NSCLC
# [28] = system: SW-620 colon
# [29] = system: SK-OV-3 ovarian
# [30] = system: LOX IMVI melanoma
# [31] = system: HS 578T breast
# [32] = system: OVCAR-4 ovarian
# [33] = system: NCI-H522 lung
# [34] = system: SF-268 CNS
# [35] = system: HCT-116 colon
# [36] = system: IGROV1 ovarian
# [37] = system: MCF7 breast
# [38] = system: OVCAR-8 ovarian
# [39] = system: NCI-H23 lung
# [40] = system: HOP-62 NSCLC
# [41] = system: A498 renal
# [42] = system: T-47D breast
# [43] = system: MDA-MB-231 breast
# [44] = system: COLO 205 colon
# [45] = system: CCRF-CEM leukemia
# [46] = system: SK-MEL-2 melanoma
# [47] = system: 786-0 renal
# [48] = system: PC-3 prostate
# [49] = system: SK-MEL-5 melanoma
# [50] = system: HCC-2998 colon
# [51] = system: UACC-257 melanoma
# [52] = system: SR leukemia
# [53] = system: MALME-3M melanoma
# [54] = system: DU-145 prostate
# [55] = system: M14 melanoma
# [56] = system: RPMI-8226 leukemia
# [57] = system: A549 NSCLC
# [58] = system: SF-295 CNS
smiles,measurement,setting,value
C/C(=N\NC(=O)c1sc(=S)n(C)c1N)c1cc2ccccc2o1,GI50,[1],11.9 µM
same,TGI,[1],29.3 µM
same,GI50,[2],18.3 µM
same,TGI,[2],37.8 µM
same,GI50,[3],21.6 µM
same,TGI,[3],> 100 µM
same,GI50,[4],13.4 µM
same,TGI,[4],38.4 µM
same,GI50,[5],18.5 µM
same,TGI,[5],61.8 µM
same,GI50,[6],16.4 µM
same,TGI,[6],48.2 µM
same,GI50,[7],12.9 µM
same,TGI,[7],25.9 µM
same,GI50,[8],18.3 µM
same,TGI,[8],41.8 µM
same,GI50,[9],26 µM
same,TGI,[9],> 100 µM
same,GI50,[10],15.3 µM
same,TGI,[10],32.7 µM
same,GI50,[11],9.12 µM
same,TGI,[11],25.8 µM
same,GI50,[12],13.6 µM
same,TGI,[12],29 µM
same,GI50,[13],10.6 µM
same,TGI,[13],24.9 µM
same,GI50,[14],5.89 µM
same,TGI,[14],24.1 µM
same,GI50,[15],13.2 µM
same,TGI,[15],27.8 µM
same,GI50,[16],37.6 µM
same,TGI,[16],> 100 µM
same,GI50,[17],17.1 µM
same,TGI,[17],45.6 µM
same,GI50,[18],8.65 µM
same,TGI,[18],32 µM
same,GI50,[19],15.5 µM
same,TGI,[19],29.9 µM
same,GI50,[20],3.51 µM
same,TGI,[20],29.1 µM
same,GI50,[21],6.38 µM
same,TGI,[21],30.8 µM
same,GI50,[22],5.05 µM
same,TGI,[22],18.9 µM
same,GI50,[23],11 µM
same,TGI,[23],26 µM
same,GI50,[24],17.6 µM
same,TGI,[24],55.6 µM
same,GI50,[25],18.7 µM
same,TGI,[25],40.4 µM
same,GI50,[26],17.3 µM
same,TGI,[26],42.6 µM
same,GI50,[27],10.3 µM
same,TGI,[27],25.4 µM
same,GI50,[28],14.8 µM
same,TGI,[28],28.4 µM
same,GI50,[29],20.9 µM
same,TGI,[29],55.6 µM
same,GI50,[30],7.05 µM
same,TGI,[30],20.1 µM
same,GI50,[31],11.7 µM
same,TGI,[31],31.2 µM
same,GI50,[32],17.9 µM
same,TGI,[32],64.2 µM
same,GI50,[33],15.5 µM
same,TGI,[33],39 µM
same,GI50,[34],14.4 µM
same,TGI,[34],37.4 µM
same,GI50,[35],16.2 µM
same,TGI,[35],32 µM
same,GI50,[36],21.4 µM
same,TGI,[36],> 100 µM
same,GI50,[37],12.3 µM
same,TGI,[37],30.4 µM
same,GI50,[38],15.3 µM
same,TGI,[38],33.8 µM
same,GI50,[39],17.7 µM
same,TGI,[39],58.8 µM
same,GI50,[40],13.3 µM
same,TGI,[40],27.2 µM
same,GI50,[41],4.58 µM
same,TGI,[41],18.9 µM
same,GI50,[42],18.6 µM
same,TGI,[42],> 100 µM
same,GI50,[43],4.86 µM
same,TGI,[43],16.5 µM
same,GI50,[44],17.1 µM
same,TGI,[44],50.6 µM
same,GI50,[45],10.6 µM
same,TGI,[45],31 µM
same,GI50,[46],14 µM
same,TGI,[46],37 µM
same,GI50,[47],14.9 µM
same,TGI,[47],29.8 µM
same,GI50,[48],9.73 µM
same,TGI,[48],32.7 µM
same,GI50,[49],10.8 µM
same,TGI,[49],30.1 µM
same,GI50,[50],11.8 µM
same,TGI,[50],27 µM
same,GI50,[51],12.8 µM
same,TGI,[51],33.4 µM
same,GI50,[52],8.04 µM
same,TGI,[52],22 µM
same,GI50,[53],28.1 µM
same,TGI,[53],56.9 µM
same,GI50,[54],11.4 µM
same,TGI,[54],27.6 µM
same,GI50,[55],14.7 µM
same,TGI,[55],40.5 µM
same,GI50,[56],12.5 µM
same,TGI,[56],49.4 µM
same,GI50,[57],7.68 µM
same,TGI,[57],20.2 µM
same,GI50,[58],14.4 µM
same,TGI,[58],30 µM
